# Experimental data: patent publication US20250073250A1, “Improved synthesis of lysine acetylsalicylate - Glycine particles” (AspiAir GmbH, priority 2022, published 2025)
# Where two headings read alike, the source gives them in different places.
# Key:
# Assay type in all cases: physicochemical
# [1] = Particle size distribution (PSD) by laser diffraction; conditions: for Dv10 / Dv50 / Dv90: volume-based
# Protocol: Unless mentioned otherwise, the particle size values provided herein (either measured or calculated/derived from measured values) refer to particle diameters and were determined using a laser diffraction device, and its related evaluation software (here, for instance, a Mastersizer® device from Malvern Instruments Ltd.); all laser diffraction measurements complied with ISO-13320 standards. Where referring to the particle size measurements, all percentages provided herein (such as ‘at least 90% of the particles have a particle size of . . . ’) are to be understood as volume-percentages. […] Where available, three or more batches of the substances were tested, and mean values of their PSD-data obtained.
# [2] = Manual dissolution of 1000 mg LASAG in 8 mL glass vial with 5 mL water for injection; conditions: 1000 mg in 5 mL water for injection, 8 mL vial
# Excerpt: As mentioned above, by controlling the particle size of the LASAG, it is possible to control parameters such as the dissolution speed (also referred to as dissolution rate). […] Special precautionary measures” that the reconstituted solution should preferably be filtered with a 5 μm filter before its application, as such indicating potential issues with (quick) dissolution. Especially, when considering that LASAG is inter alia employed in the treatment of myocardial infarction, i.e., an acute health crisis where time is of critical importance, a faster, more readily occurring dissolution of the LASAG used, can represent a clinically relevant advantage.
# An amount of 5 mL water for injection purposes was injected through the sealing stopper over the course of about 25-30 seconds, the needle then removed, and the vial shaken, or swirled, manually until complete dissolution (no residual solids visible to the human eye). The same test was performed with a commercially available Aspirin® i.v. vial. Each test was repeated at least 3 times per type of LASAG. This test and the resulting dissolution behaviour are considered similar to what is likely to be observed by, for instance, paramedics in an ambulance or medical staff in hospitals upon dissolving the dry LASAG particles in pre-filled vials by adding water for injection purposes and shaking manually. […]
# [3] = Dissolution on horizontal shaker; conditions: 1000 mg in 5 mL water, 25 mL test tube, horizontal shaker 1055 rpm, 5 s intervals
# Protocol: An amount of 5 mL water for injection purposes was added, and the vial shaken in intervals of 5 seconds at 1055 rpm until complete dissolution (no residual solids visible to the human eye). The same test was performed with a commercially available Aspirin® i.v. vial. Each test was repeated at least 3 times per type of LASAG.
# [4] = Glass adhesion in 8 mL glass vial (gravimetric)
# Protocol: After opening the vial and emptying out any non-adhered powder by simple gravitational spill, the vial with the adhered particles inside is weighed again, to thereby gravimetrically determine the weight of the adhered particles. Low glass adhesion facilitates handling of the vials (e.g., better visibility into the vial), and ensures that the complete intended dose is dissolved upon adding water to the vial (rather than, for instance, some material sticking to the upper end of the vial, near the stopper, where the water, that is added into the vial via injection through a needle, may not reach). […] On at least five consecutive days, the vial was manually moved, or rotated, once daily around all its axes to properly disperse the LASAG particles and allow them to coat the inner glass surface. After seven days, the vials were emptied by simply turning them upside down and allowing all non-adhering powder to spill out, or fall out, under gravity, followed by firmly tapping the vial five times onto a solid surface. No noteworthy adhesion to the stopper was observed. The weight of the remainder, i.e., the weight of the LASAG powder still sticking to the glass wall inside the vial after emptying, was determined gravimetrically. The same test was performed with a commercially available Aspirin® i.v. vial.
# [5] = Stability in aqueous solution (salicylic acid content by HPLC)
# Protocol: Due to its instability in water, LASAG is commonly used as a dry powder, and specifically as a dry powder for reconstitution; in other words, an aqueous solution thereof is not necessarily meant to be stored for extended periods of time but instead is prepared freshly prior to each use. Stability in aqueous solution is nonetheless an important feature for users, for instance, in order to know how long a prepared solution can still be used; a content of ≤1.5 wt.-% of the LASAG-degradant salicylic acid (SA) in a solution is typically considered acceptable. […] In between sample time points, the vials were kept closed.
# The following time points were measured:
# For the HPLC-analysis, an Agilent Zorbax SB-C18 column was used (4.6×250 mm, 5 μm) at 22° C. with isocratic elution over 40 minutes at an eluent flow rate of 1 mL/min. The eluent was an 80 mM ammonium acetate/acetonitrile solution (60:40) prepared by dissolving 4 g ammonium acetate in 600 mL HPLC-grade water, adjusting the pH to 2.0 using trifluoroacetic acid, then adding 400 mL acetonitrile and homogenising the mixture. The injected sample volume was 10 μL. A UV-detector was used at 237 nm to analyse the samples.
# [6] = Storage stability in dry state in aluminium-lined polyethylene bags
# Protocol: At 5±3° C. […] After continuation of the cold storage stability study for a further 12 months, this stability finding is reconfirmed, with the extrapolated value being increased to from 70.9±3.5 months to 200±5 months.
# [7] = Specific surface area by BET gas adsorption
# Excerpt: Without wishing to be bound by theory, it seems possible that not only the smaller median particle size of the LASAG according to the present invention is responsible for its faster dissolution but also its higher specific surface area.
# [8] = listed as LASAG 2 (batch in clinical study)
structure (smiles),measurement,setting,value
"CC(=O)Oc1ccccc1C(=O)O.NCC(=O)O.NCCCCC(N)C(=O)O (racemic) [LASAG 2, lysine acetylsalicylate⋅glycine]",1st max. of particle size distribution,[1],20.4 μm
same,1st max. of particle size distribution,[1]; [8],18.7 μm
same,Dv10,[1],4.2 μm
same,Dv50,[1],18.4 μm
same,Dv90,[1],53.3 μm
same,Dv10,[1]; [8],3.8 μm
same,Dv50,[1]; [8],16.3 μm
same,Dv90,[1]; [8],40.4 μm
same,Dv90,[1]; listed as LASAG of the present invention,about 50 μm
same,shaking/swirling motions until complete dissolution,[2]; manual,3-5
same,time from removing the needle until complete dissolution,[2]; manual shaking/swirling,15 to 30 s
same,time until complete dissolution,[3],18.3 ± 2.9 s
same,weight remaining in the vial (adhering to glass),"[4]; 1000 mg in 8 mL vial, after seven days, emptied and tapped",5.12 ± 0.35 mg
same,glass adhesion per inner glass surface,[4]; inner glass surface approx. 29 cm^2,about 0.177 mg/cm^2
same,time at which solution exceeds 1.5 wt.-% salicylic acid content,"[5]; 1.0 g in 5.0 mL water, room temperature (20±5° C.)",about 1 h
same,changes in colour or clarity of solution,[5]; over time range and storage conditions tested,None
same,Time until reaching salicylic acid threshold of 1.5%,"[6]; 5±3° C., extrapolated after continuation of study for a further 12 months",200±5 months
same,Time until reaching salicylic acid threshold of 1.5%,"[6]; 5 ± 3° C., n = 3, extrapolated, listed as LASAG according to present invention",70.9 ± 3.5 months
same,Time until reaching salicylic acid threshold of 1.5%,"[6]; 25 ± 2° C. 60 ± 5% r.h., n = 3",10.3 ± 2.0 months
same,Time until reaching salicylic acid threshold of 1.5%,"[6]; 30 ± 2° C. 65 ± 5% r.h., n = 3",3.5 ± 1.2 months
same,Time until reaching salicylic acid threshold of 1.5%,"[6]; 40 ± 2° C. 75 ± 5% r.h., n = 3",0.2 ± 0.0 months
same,specific surface area,[7],2.4±0.1 m^2/g
